Experimental data from patent US6528535B2, “Bicyclic inhibitors of protein farnesyl transferase” (Warner-Lambert Company, priority 1997, dated 2003).

Legend:
[1] = molecular target: T1, SF9 affinity purified rat FPT (Rattus norvegicus, UniProt Q02293+Q04631); experiment: PFT (farnesyl protein transferase) inhibitory activity, radiolabeled farnesyl pyrophosphate / biotinyl peptide bead assay; type: biochemical; details: average of two tests unless n is given in parentheses; read-out: FTase, IC50
T1 construct: made in house; host or cells: Sf9 insect cells
Procedure, shortened: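 Rat FPT, affinity-purified from SF9 cells, was run at 30° C. for 30 min in HEPES pH 7.4 with 5 mM potassium phosphate, 20 μM ZnCl2, 5 mM DTT, 5 mM MgCl2 and 0.1% PEG 8000; the assay was also run without phosphate. Substrates were [3H]farnesyl pyrophosphate (134 nM) and biotinyl-Ahe-TKCVIM peptide (0.2 μM). Product was captured on streptavidin beads and counted.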

[2] = tested on: human colon carcinoma xenografts; details: 100 mg/kg; human colon carcinoma xenografts in nude mice; cited from earlier work
[3] = tested on: EJ-1 human bladder carcinoma; details: 100 mg/kg; EJ-1 human bladder carcinoma xenograft in nude mice; cited from earlier work
[4] = tested on: HT1080 human fibrosarcoma; details: 100 mg/kg; HT1080 human fibrosarcoma xenograft in nude mice; cited from earlier work
[5] = tested on: human lung carcinoma with K-ras mutation and p53 deletion; details: nude mice; cited from earlier work
[6] = tested on: mammary and salivary carcinomas; details: daily administration; ras transgenic mice; cited from earlier work

| melting point [°C] | IC50 [1] [nM] | SMILES | other results |
| --- | --- | --- | --- |
| 211 to 213 | 12200 | CCN(CC)C(=O)c1ccc(C=C2CCc3cc(OCCc4c[nH]cn4)ccc3C2=O)cc1.Cl [Example 34, N,N-Diethyl-4-{6-[2-(1H-imidazole-4-yl)-ethoxy]-1-oxo-3,4-dihydro-1H-naphthalen-2-ylidenemethyl}-benzamide, monohydrochloride] |  |
| 69 to 70 | 490 | Cc1ccc(C=C2CCc3cc(OCCc4c[nH]cn4)ccc3C2=O)s1 [Example 37, 6-[2-(1H-Imidazole-4-yl)-ethoxy]-2-(5-methyl-thiophen-2-ylmethylene)-3,4-dihydro-2H-naphthalen-1-one] |  |
| 191 to 193 | 3100 | Cc1ccsc1C=C1CCc2cc(OCCc3c[nH]cn3)ccc2C1=O [Example 39, 6-[2-(1H-Imidazole-4-yl)-ethoxy]-2-(3-methyl-thiophen-2-ylmethylene)-3,4-dihydro-2H-naphthalen-1-one] |  |
| 57 to 60 | 190 | O=C1C(=Cc2ccco2)CCc2cc(OCCc3c[nH]cn3)ccc21 [Example 41, 2-Furan-2-ylmethylene-6-[2-(1H-imidazole-4-yl)-ethoxy]-3,4-dihydro-2H-naphthalen-1-one] |  |
| 176 to 178 | 5900 | O=C1C(=Cc2ccc(Br)cc2)CCc2cc(OCCc3c[nH]cn3)ccc21 [Example 42, 2-(4-Bromo-benzylidene)-6-[2-(1H-imidazole-4-yl)-ethoxy]-3,4-dihydro-2H-naphthalen-1-one] |  |
| 153 to 155 | 4400 | Cl.O=C1CCCc2cc(OCCCc3c[nH]cn3)ccc21 [Example 43, 6-[3-(1H-Imidazole-4-yl)-propoxy]-3,4-dihydro-2H-naphthalen-1-one, hydrochloride] |  |
| 198 to 200 | 3600 | O=C1/C(=C/C=C/c2ccccc2)CCc2cc(OCCn3ccnc3)ccc21 [Example 44, (E,E)-6-(2-Imidazol-1-yl-ethoxy)-2-(3-phenyl-allylidene)-3,4-dihydro-2H-naphthalen-1-one] |  |
| 150 to 151 | 15400 | Cc1cc2c(cc1OCCn1ccnc1)CC/C(=C\c1cccs1)C2=O [Example 46, 6-[2-(1H-1-Imidazolyl)ethoxy]-7-methyl-2-[(E)-1-(2-thienyl)methylidene]-1,2,3,4-tetrahydro-1-naphthalenone] |  |
| 110 to 112 | 1300 | Cc1c(OCCn2ccnc2)ccc2c1CCCC2=O [Example 47, 6-[2-(1H-1-Imidazolyl)ethoxy]-5-methyl-1,2,3,4-tetrahydro-1-naphthalenone] |  |
| 182 to 184 | 400 | Cc1c(OCCn2ccnc2)ccc2c1CC/C(=C\c1cccs1)C2=O [Example 48, 6-[2-(1H-1-Imidazolyl)ethoxy]-5-methyl-2-[(E)-1-(2-thienyl)methylidene]-1,2,3,4-tetrahydro-1-naphthalenone] |  |
| 131 to 133 | 2600 | O=c1ccoc2cc(OCCn3ccnc3)ccc12 [Example 50, 7-[2-(1H-1-Imidazolyl)ethoxy]-4H-4-chromenone] |  |
| 128 to 130 | 4400 | O=C1CCOc2cc(OCCn3ccnc3)ccc21 [Example 51, 7-[2-(1H-1-Imidazolyl)ethoxy]-4-chromanone] |  |
| 177 to 179 | 3000 | ON=C1CCCc2cc(OCCn3ccnc3)ccc21 [Example 53, 6-[2-(1H-1-Imidazolyl)ethoxyl]-1,2,3,4-tetrahydro-1-naphthalenone oxime] |  |
| 193 to 195 | 340 | O=C(O)CON=C1CCCc2cc(OCCn3ccnc3)ccc21 [Example 54, [6-(2-Imidazol-1-yl-ethoxy)-3,4-dihydro-2H-naphthalen-1-ylideneaminooxy]-acetic acid] |  |
| 139 to 140 | 120 | O=C1CC(c2ccccc2)Oc2cc(OCCn3ccnc3)ccc21 (stereo not shown) [Example 76, 7-[2-(1H-1-Imidazolyl)ethoxy]-2-phenyl-4-chromanone] |  |
| 155 to 159 | 9300 | O=c1cc(-c2ccccc2)oc2cc(OCCn3ccnc3)ccc12 [Example 77, 7-[2-(1H-1-Imidazolyl)ethoxy]-2-phenyl-4H-4-chromenone] |  |
| 132 to 135 | 2600 | CC(COc1ccc2c(c1)CCCC2=O)n1ccnc1 (stereo not shown) [Example 78, 6-[2-(1H-1-Imidazolyl)propoxy]-1,2,3,4-tetrahydro-1-naphthalenone] |  |
| 160 to 162 | 230 | CC(COc1ccc2c(c1)CC/C(=C\c1cccs1)C2=O)n1ccnc1 (stereo not shown) [Example 79, 6-[2-(1H-1-Imidazolyl)propoxy]-2-[(E)-1-(2-thienyl)methylidene]-1,2,3,4-tetrahydro-1-naphthalenone] |  |
| 84 to 86 | 900 | CC1(C)CC(=O)c2ccc(OCCn3ccnc3)cc2O1 [Example 83, 7-[2-(1H-Imidazolyl)ethoxy]-2,2-dimethyl-4-chromanone] |  |
|  |  | COC(=O)[C@H](CCSC)NC(=O)[C@H](/C=C\[C@@H](/C=C/[C@@H](N)CS)C(C)C)Cc1ccccc1 [Example B1086] | tumor growth [2]: inhibit tumor growth; tumor growth [3]: inhibit tumor growth; tumor growth [4]: inhibit tumor growth |
|  |  | CSCC[C@H](NC(=O)c1ccc(NC[C@@H](N)CS)cc1-c1ccccc1)C(=O)O [FTI276] | tumor growth [5]: selectively block tumor growth |
|  |  | CC[C@H](C)[C@@H](CO[C@@H](Cc1ccccc1)C(=O)N[C@@H](CCS(C)(=O)=O)C(=O)OC(C)C)NC[C@@H](N)CS [L-744,832] | tumor regression [6]: caused tumor regression |
